Test systems include SK-MEL-5; HOP-62; NCI-H522; KM12; CCRF-CEM; DU-145; ACHN; M14; RXF 393; EKVX; A498; SF-268; MOLT-4; K562; OVCAR-4; HL-60; OVCAR-5; SF-539; PC-3; MCF7.
Holding throughout (test): inhibition of tumour cell growth, NCI panel, 48 h

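Results reflect a 48-hour exposure of cells in 96-well plates to compound at five concentrations. The concentration for 50% growth inhibition is given as GI50.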 Calls of active or inactive are those of the source. Rule as the data show it: active = GI50 up to about 1.1 µM and inactive = higher.

Consider `CC(C)[C@]12O[C@H]1[C@@H]1O[C@@]13[C@@]1(C)CCC4=C(COC4=O)[C@@H]1C[C@@H]1O[C@@]13C2=O` [TRIPTONIDE], for which the GI50 was 0.0141 µM (active) with SK-MEL-5; < 0.01 µM (active) in the assay on HOP-62; < 0.0186 µM (active) in the assay on NCI-H522; 0.824 µM (active) in the assay with KM12; 0.063 µM (active) in the assay with CCRF-CEM; 0.0235 µM (active) in the assay with DU-145. The GI50 was < 0.01 µM (active) with ACHN; 0.0173 µM (active) in the assay with M14; < 0.01 µM (active) with RXF 393; 0.0287 µM (active) with EKVX; 0.0178 µM (active) in the assay on A498; 0.0229 µM (active) with SF-268. Also, the GI50 in the assay on MOLT-4 is < 0.01 µM (active); with K562 it was 0.0128 µM (active); in the assay on OVCAR-4, < 0.01 µM (active); in the assay with HL-60 it was < 0.01 µM (active); with OVCAR-5 it was 0.0317 µM (active); in the assay on SF-539, 0.0171 µM (active). For the same compound, the GI50 with PC-3 was 0.0227 µM (active); in the assay on MCF7 it was < 0.01 µM (active).
`Cc1[nH]c2ccccc2c1/C=N/c1ccc(Oc2ccccc2)cc1`: the GI50 with SK-MEL-5 is 15.2 µM (inactive); with NCI-H522, 14.1 µM (inactive); in the assay on KM12, 16.2 µM (inactive); in the assay with CCRF-CEM it was 7.05 µM (inactive); in the assay on DU-145, 16.1 µM (inactive); in the assay on ACHN, 16.3 µM (inactive). For the same compound, the GI50 in the assay on M14 is 16.6 µM (inactive); with RXF 393, 16.8 µM (inactive); in the assay on EKVX, 14.1 µM (inactive); with A498 it was 18.3 µM (inactive); in the assay with SF-268, 14.6 µM (inactive); in the assay on MOLT-4 it was 13.8 µM (inactive). The GI50 in the assay on K562 is 23.2 µM (inactive); with OVCAR-4, 14.9 µM (inactive); in the assay with HL-60, 12.1 µM (inactive); in the assay on OVCAR-5, 16.3 µM (inactive); with SF-539, 18.1 µM (inactive); in the assay on PC-3, 13.8 µM (inactive). For the same compound, in the assay with MCF7, the GI50 was 19.1 µM (inactive).
Take `CCN(CC)C1Oc2cc3c(cc2C(c2cccc(OC)c2OC)C1C)OCO3` (stereo not drawn): the GI50 with SK-MEL-5 was 6.84 µM (inactive); with HOP-62, 10.8 µM (inactive); with NCI-H522 it was 4.13 µM (inactive); with KM12 it was 4.9 µM (inactive); with CCRF-CEM, 2.17 µM (inactive); with DU-145, 3.23 µM (inactive). In addition, the GI50 in the assay with ACHN was 3.22 µM (inactive); with M14, 12.1 µM (inactive); with RXF 393, 2.23 µM (inactive); in the assay on EKVX, 13.1 µM (inactive); in the assay on A498, 5.81 µM (inactive); in the assay on SF-268, 7.91 µM (inactive). For the same compound, the GI50 in the assay on MOLT-4 is 4.01 µM (inactive); in the assay on K562, 3.05 µM (inactive); in the assay with HL-60, 1.88 µM (inactive); in the assay on OVCAR-5 it was 13 µM (inactive); in the assay on SF-539, 10.2 µM (inactive); in the assay on PC-3, 4.03 µM (inactive). Also, in the assay on MCF7, the GI50 was 5.08 µM (inactive).
Take `O=S(=O)(O)c1ccc(-c2nnc(-c3ccccn3)nc2-c2ccc(S(=O)(=O)O)o2)o1`: the GI50 with SK-MEL-5, in the assay with HOP-62, in the assay on NCI-H522, in the assay with KM12, in the assay with DU-145 and in the assay on ACHN was > 100 µM (inactive) in each case. Moreover, the GI50 in the assay on M14, in the assay with RXF 393, in the assay with EKVX, in the assay with A498, in the assay with SF-268 and with MOLT-4 was > 100 µM (inactive) in each case. In addition, the GI50 in the assay on K562 is > 100 µM (inactive); with OVCAR-4 it was > 100 µM (inactive); with HL-60 it was 0.329 µM (active); with OVCAR-5, > 100 µM (inactive); in the assay on SF-539, > 100 µM (inactive); in the assay on PC-3 it was > 100 µM (inactive). In the assay with MCF7, the GI50 is > 100 µM (inactive).
As for `O=C(O)Cc1c(-c2ccc([N+](=O)[O-])cc2)c(=O)oc2cc(O)ccc12`, the GI50 in the assay with SK-MEL-5 is 18.1 µM (inactive); with NCI-H522 it was 29 µM (inactive); in the assay with KM12 it was 26.9 µM (inactive); in the assay with CCRF-CEM it was 22.5 µM (inactive); in the assay with DU-145, 30.4 µM (inactive); in the assay on ACHN it was 24.2 µM (inactive). For the same compound, the GI50 was 32.1 µM (inactive) in the assay with M14; 30.3 µM (inactive) in the assay on RXF 393; 15.1 µM (inactive) with EKVX; 22.4 µM (inactive) in the assay with A498; 34.8 µM (inactive) with SF-268; 4.12 µM (inactive) in the assay with MOLT-4. The GI50 in the assay on K562 was 30.9 µM (inactive); in the assay with HL-60, 17.7 µM (inactive); in the assay on OVCAR-5, 30.1 µM (inactive); in the assay on SF-539, 32.4 µM (inactive); in the assay with PC-3, 28.1 µM (inactive); with MCF7 it was 32.5 µM (inactive).
In the case of `CC(NC(=O)c1ccc(Cl)c(Cl)c1)c1ccc(-c2ccccc2)cc1` (stereo not drawn), the GI50 with SK-MEL-5 is 75.7 µM (inactive); in the assay on HOP-62, 22.2 µM (inactive); in the assay with NCI-H522, 33.3 µM (inactive); with KM12 it was 57.7 µM (inactive); in the assay on DU-145, 18.3 µM (inactive); in the assay on ACHN it was 50.1 µM (inactive). Besides, the GI50 with M14 was 64.7 µM (inactive); in the assay on RXF 393 it was 12.1 µM (inactive); with EKVX, 35 µM (inactive); in the assay with A498, 28.9 µM (inactive); in the assay on SF-268, 29.3 µM (inactive); with K562, > 100 µM (inactive). In addition, the GI50 is 16.4 µM (inactive) in the assay on OVCAR-4; 4.58 µM (inactive) in the assay with HL-60; 44.9 µM (inactive) in the assay with OVCAR-5; 19.3 µM (inactive) in the assay with SF-539; 28.2 µM (inactive) in the assay with PC-3; 78 µM (inactive) in the assay on MCF7.
Consider `CN(C)Cc1cc(C=O)cc(CN(C)C)c1O`, for which the GI50 with SK-MEL-5, in the assay with HOP-62, in the assay on NCI-H522, in the assay on KM12, with CCRF-CEM and with DU-145 was > 100 µM (inactive) throughout. In addition, the GI50 in the assay with ACHN, in the assay on RXF 393, in the assay on EKVX, in the assay with A498, with SF-268 and in the assay with MOLT-4 was > 100 µM (inactive) each time. Further, the GI50 with K562, in the assay on OVCAR-4, with HL-60, in the assay on SF-539, in the assay on PC-3 and with MCF7 was > 100 µM (inactive) throughout.
Consider `COc1ccc(C2CCc3nc4nc(N)nc(N)c4cc3C2)cc1` (stereo not drawn), for which the GI50 is 62.5 µM (inactive) in the assay with SK-MEL-5; 12.1 µM (inactive) in the assay on HOP-62; 25.4 µM (inactive) with NCI-H522; 30.8 µM (inactive) with KM12; 39.7 µM (inactive) in the assay on DU-145; 6.64 µM (inactive) with ACHN. Also, the GI50 in the assay with M14 is 86.9 µM (inactive); in the assay on RXF 393, 16.3 µM (inactive); in the assay with EKVX it was 41.2 µM (inactive); with A498, 22.2 µM (inactive); in the assay with SF-268 it was 15.8 µM (inactive); with MOLT-4, 22.1 µM (inactive). For the same compound, the GI50 in the assay with K562 is 16.4 µM (inactive); in the assay on OVCAR-4, 22.8 µM (inactive); in the assay with HL-60, 54 µM (inactive); in the assay on OVCAR-5, > 100 µM (inactive); in the assay on SF-539, 12.4 µM (inactive); in the assay on PC-3 it was 85.1 µM (inactive). Besides, the GI50 with MCF7 was 15.2 µM (inactive).
With `COc1cc(NC(C)c2ccc3c(c2)OCCO3)cc(OC)c1OC` (stereo not drawn), the GI50 with SK-MEL-5 was 18.5 µM (inactive); in the assay on HOP-62, 58.7 µM (inactive); in the assay on NCI-H522, 17.5 µM (inactive); in the assay on KM12, 31.5 µM (inactive); in the assay with DU-145 it was 36.6 µM (inactive); in the assay on ACHN it was 70 µM (inactive). The GI50 was 31.4 µM (inactive) in the assay on M14; 27.3 µM (inactive) with RXF 393; 33 µM (inactive) in the assay on EKVX; 77.1 µM (inactive) in the assay on A498; 26.7 µM (inactive) in the assay with SF-268; 26.3 µM (inactive) in the assay with MOLT-4. The GI50 in the assay with K562 was 8.97 µM (inactive); in the assay on OVCAR-4, 68.4 µM (inactive); with HL-60, 18.5 µM (inactive); in the assay with OVCAR-5, 46.6 µM (inactive); in the assay with SF-539, 22.1 µM (inactive); in the assay with PC-3 it was 44.9 µM (inactive). Moreover, the GI50 with MCF7 was 29.6 µM (inactive).
As for `Cc1cc(S(=O)(=O)N/C(=C(\C#N)C(=O)c2ccc(Cl)cc2)[n+]2ccc(N(C)C)cc2)c([S-])cc1Cl`, the GI50 was > 100 µM (inactive) in the assay on SK-MEL-5; 38.1 µM (inactive) in the assay on HOP-62; 28.9 µM (inactive) in the assay with NCI-H522; > 100 µM (inactive) with KM12; 64 µM (inactive) with CCRF-CEM; > 100 µM (inactive) in the assay on DU-145. Further, the GI50 in the assay with ACHN was > 100 µM (inactive); in the assay on M14 it was 41.9 µM (inactive); in the assay with RXF 393 it was > 100 µM (inactive); in the assay with A498 it was 12.3 µM (inactive); with SF-268 it was 76.6 µM (inactive); in the assay with MOLT-4, > 100 µM (inactive). Also, the GI50 in the assay with K562 was 53.2 µM (inactive); in the assay on OVCAR-4 it was 40.9 µM (inactive); in the assay with HL-60, > 100 µM (inactive); with OVCAR-5 it was 66.5 µM (inactive); in the assay with SF-539, 67.3 µM (inactive); with PC-3 it was 36.6 µM (inactive). The GI50 with MCF7 is 71.3 µM (inactive).
